These results are taken from patent publication US10253251B2, “Nanomatrix separation of chromophores and uses thereof in luminescent devices” (RAMOT AT TEL-AVIV UNIVERSITY LTD., priority 2010, dated 2019).

Where “and” joins values, the source holds several entries; their conditions need not be identical. Equal entries are not always repeated.

Data set [1] has as its system Bovine Submaxillary Mucin (BSM). Put plainly: Loading capacity of BSM glycoprotein for hydrophobic ligands (ligand uptake). The class given is binding. Conditions: for BSM NBL (average number of bound ligands per BSM monomer): LUP multiplied by BSM monomer-to-ligand molecular weight ratio; for BSM LUP (ligand uptake percentage, ligand-to-BSM weight ratio): extracted ligand (hydrolysis-extraction, UV-vis) divided by BSM protein (PAS assay). The source says: In order to determine the loading capacity of BSM glycoprotein for the examined ligands, elemental analysis measurements were preformed. The carbon content of each complex (in the case of C60 and MWNT containing complexes) was compared to the carbon content found in the native BSM. This was used to determine the amount of ligand in the complex and by that, the mucin-ligand weight ratio (ligand uptake percentage—LUP, Table 1).
In this procedure, the amount of the BSM protein in the mucin complex was analyzed by a periodic acid/Schiff (PAS) assay.
In more detail, in order to determine the amount of C60, a hydrolysis-extraction process was used which included heating of the complex in a heterogeneous mixture of hydrochloric acid and chloroform at 80° C., in a sealed vessel, and then the amount of a chloroform-extracted ligand was determined by UV-vis spectroscopy.
Additional calculation determined the average number of bound ligand (NBL) per BSM monomer by multiplication of the LUP value by the BSM monomer-to-ligand molecular weight ratio (Eq. 2).
In order to ascertain the capacity of BSM glycoprotein for various ligands, the amounts of Ant, Bap and Cor ligands in corresponding BSM complexes were determined. The amount of the BSM protein in each BSM complex was analyzed by a periodic acid/Schiff (PAS) assay.
In order to determine the amount of ligand in each complex, the above-described hydrolysis-extraction process was employed and determined the amount of chloroform-extracted ligand by UV-vis spectroscopy.
The LUP values were calculated by dividing the amount of the extracted ligand by the amount of the BSM protein present in the complex. […] The average number of bound ligands (NBL) per BSM monomer was also calculated by multiplication of the LUP value by the BSM monomer-to-ligand molecular weight ratio, as discussed above.
(§1) To a solution of BSM or deglycosylated BSM protein (4 mg mL^−1, 1.5 mL) in sodium phosphate buffer (2 mM, pH 7.2) a solid ligand (1 mg) was added at room temperature and the mixture was stirred at 500-700 rpm for 48 hrs. After that time, the reaction mixture was filtered through a 0.45 μm filter and the solution was loaded on a Sephadex G-25 gel-permeation column (Pharmacia Biotech). Protein complexes were eluted with a sodium phosphate buffer (20 mM, pH 7.2) and elution was monitored by UV-vis spectroscopy.
(§2) The amount of BSM or deglycosylated BSM protein in complexes was determined by using a standard periodic acid/Schiff assay (Sigma-Aldrich). The amount of a ligand in each complex was determined by UV-vis spectroscopy after protein hydrolysis and quantitative extraction of the ligand by chloroform. To a sample of complex in a sodium phosphate buffer (1 mL, 20 mM, pH 7.2), chloroform (1 mL) and hydrochloric acid (1 mL, 12 M) were added at room temperature. The reaction mixture was sealed in a glass pressure vessel and heated at 80° C. with vigorous stirring for 3 hrs. After cooling to a room temperature, the organic phase containing extracted ligand was analyzed by UV-vis spectroscopy.

Data set [2] can be described thus: Binding/dissolution of hydrophobic ligands by oligosaccharide: starch. The note with it: dissolved ligand divided by amount of oligosaccharide. How it is done: (§3) The subsequent series of complementary experiments was designed to examine capabilities of different size oligosaccharides to bind selected hydrophobic ligands.
(§4) Representative oligosaccharides, including β-cyclodextrin, starch, arabic acid and lactose, were incubated with C60, according to the described above protocol for the BSM complexes preparation. […] Therefore, it is believed that interactions between the saccharide residues and the polypeptide backbone in a sugar-substituted polypeptide dictate certain arrangements of the saccharide moieties in space, and these arrangements play a role in the complexation of various hydrophobic materials.
(§5) The subsequent series of complementary experiments was designed to examine capabilities of different size oligosaccharides to bind selected hydrophobic ligands. Representative oligosaccharides, including β-cyclodextrin, starch, arabic acid and lactose, were incubated with Ant, Bap and Cor ligands, according to the described above protocol for the BSM complexes preparation. The LUP values were calculated by dividing the amount of the dissolved ligand by the amount of the oligosaccharide present in the complex (if formed). No clear preference was for binding of particular ligands to certain oligosaccharides. In comparison to BSM, the dissolution capability of arabic acid was drastically lower for all tested ligands. It was practically negligible in the cases of lactose, β-cyclodextrin and starch (Table 1).

Data set [3] in a line: Incubation of representative oligosaccharides with C60, detection in solution by UV-vis or SEC-HPLC. The format is physicochemical. Conditions: β-cyclodextrin, starch, arabic acid and lactose. How it is done: as §3, §4
(In general: SEC sorts molecules by how far they enter the pores of the column.)

Data set [4] is described as follows: Binding/dissolution of hydrophobic ligands by oligosaccharide: β-cyclodextrin. Conditions: dissolved ligand divided by amount of oligosaccharide. How it is done:
as §3, §4
as §5, with “It was practically negligible in the cases of lactose, β-cyclodextrin and starch (Table 1).” left out

The subject of data set [5] is deglycosylated form of BSM (dBSM). Put plainly: Loading capacity of deglycosylated BSM (dBSM) for hydrophobic ligands. The format is binding, bovine. Conditions: for dBSM NBL (number of bound ligands per dBSM monomer) / dBSM UP (%): deglycosylated BSM. How it is done:
To evaluate this assumption, a deglycosylated form of BSM (dBSM) was prepared and repeated binding experiments with this modified protein were carried out. Complexes of C60 with dBSM were prepared as described above for the complexation with BSM.
dBSM was prepared by base-catalyzed β-elimination of periodate-oxidized glycans, using method reported by Kim and coworkers.
A deglycosylated form of BSM (dBSM) was prepared and the binding experiments with this protein were repeated. Complexes of Ant, Bap and Cor ligands with dBSM were prepared as described above for the complexation with BSM. dBSM was prepared as described above in the context of fullerene, nanotubes, and inorganic nanostructures.
A solution of BSM protein (100 mg) in NaOH (0.1 M, 10 mL) was stirred at room temperature for 30 min. The resulting solution was cooled to 4° C. NaIO4 (100 mM) in acetate buffer (100 mM, pH 4.5) was added and the mixture was stirred overnight at 4° C. After that time, glycine (200 mg) was added and the reaction mixture was allowed to warm to room temperature and was stirred for 30 min. NaOH (1.0 M, 1 mL) was added and the solution was stirred for an additional 30 min. The resulting solution was dialyzed against deionized water overnight and was then centrifuged and lyophilized. The degree of deglycosylation was measured by using a standard periodic acid/Schiff assay (Sigma-Aldrich).
as §1, §2

Data set [6] can be described thus: Binding/dissolution of hydrophobic ligands by oligosaccharide: arabic acid. The note with it: dissolved ligand divided by amount of oligosaccharide. How it is done: as §3, §4, §5

In the case of `c12c3c4c5c1c1c6c7c2c2c8c3c3c9c4c4c%10c5c5c1c1c6c6c%11c7c2c2c7c8c3c3c8c9c4c4c9c%10c5c5c1c1c6c6c%11c2c2c7c3c3c8c4c4c9c5c1c1c6c2c3c41` [Ligand C60, C60], in data set [1], the “average number of bound ligand (NBL) per BSM monomer” value is on record as 40 ligands per monomeric unit of BSM; the “BSM NBL (average number of bound ligands per BSM monomer)” value stood at 36 ± 6; the “BSM LUP (ligand uptake percentage, ligand-to-BSM weight ratio)” value is 15.1% and 15.1 ± 2.4%. Further, the “Starch LUP” value in data set [2] is on record as 0.35 ± 0.07%. Moreover, in data set [3], the “C60 detected in the solution after incubation with oligosaccharides” value is listed as “no C60 was detected”. For the same compound, the “β-Cyclodextrin LUP” value in data set [4] stood at 0.12 ± 0.02%. In addition, in data set [5], the “uptake capacity of dBSM, ligands per monomer” value was 2 ligand molecules per monomeric unit; the “dBSM NBL (number of bound ligands per dBSM monomer)” value is recorded as 1.9 ± 0.1; the “dBSM UP (%)” value was 1.4% and 1.41 ± 0.28%.

Consider `c1ccc2cc3ccccc3cc2c1` [Ant, anthracene], for which, in data set [6], the “Arabic Acid LUP” value is given as 0.56 ± 0.11%. For the same compound, in data set [1], the “BSM NBL (average number of bound ligands per BSM monomer)” value was 43 ± 9; the “BSM LUP (ligand uptake percentage, ligand-to-BSM weight ratio)” value is 4.5% and 4.5 ± 0.9%. Further, in data set [5], the “dBSM NBL (number of bound ligands per dBSM monomer)” value is on record as 2.2 ± 0.3 and the “dBSM UP (%)” value amounted to 0.28 ± 0.06%.

As to `c1cc2ccc3ccc4ccc5ccc6ccc1c1c2c3c4c5c61` [Cor, coronene], the “Arabic Acid LUP” value in data set [6] worked out at 0.18 ± 0.04%. Also, in data set [1], the “BSM NBL (average number of bound ligands per BSM monomer)” value is listed as 44 ± 9 and the “BSM LUP (ligand uptake percentage, ligand-to-BSM weight ratio)” value was determined as 7.8 ± 1.5%. Besides, in data set [1] (listed as Coronene), the “BSM LUP (ligand uptake percentage, ligand-to-BSM weight ratio)” value amounted to 7.7%. Further, the “Starch LUP” value in data set [2] is 0.18 ± 0.04%. In data set [5], the “dBSM NBL (number of bound ligands per dBSM monomer)” value was determined as 2.1 ± 0.2 and the “dBSM UP (%)” value is 0.61 ± 0.12%.

For the compound `c1ccc2c(c1)cc1ccc3cccc4ccc2c1c34` [Bap, benzo[a]pyrene], in data set [6], the “Arabic Acid LUP” value was 0.09 ± 0.02%. Further, in data set [1], the “BSM NBL (average number of bound ligands per BSM monomer)” value worked out at 36 ± 8 and the “BSM LUP (ligand uptake percentage, ligand-to-BSM weight ratio)” value was found to be 5.4 ± 1.1%. Also, the “Starch LUP” value in data set [2] was determined as 0.11 ± 0.02%. Moreover, in data set [5], the “dBSM NBL (number of bound ligands per dBSM monomer)” value turned out to be 1.2 ± 0.2 and the “dBSM UP (%)” value is 0.23 ± 0.05%.
